Reference: PMC11571215, “Optimization of Antiproliferative Properties of Triimine Copper(II) Complexes” (Journal of Medicinal Chemistry, 2024)
Like-named read-outs stand apart in the source and are kept apart here.

How the values were obtained:
Format in all cases: cell-based, human
HCT116-DoxR cells = assay: Cell cycle progression analysis (PI, flow cytometry); settings: complexes at IC50, Dox 6 μM, Cis 5 μM; 9, 12, 18, 24 h after double thymidine block
Description: It is important to note that exposure to increased levels of ROS can trigger genotoxic stress, an effect often associated with chemotherapy and that may promote cell cycle arrest.[84] The cell cycle comprises a sequential set of cellular events such as checkpoints that regulate transitions between different phases when cells are under stress conditions. Indeed, if DNA damage occurs, interphase checkpoints can trigger cell cycle arrest, repair, and induction of apoptosis or senescence.[85] Indeed, data in Table 7 show some degree of accumulation of both complexes in the nucleus, which may expose the genomic DNA to their action. […] This DNA intercalating fluorophore allows the analysis of DNA content in various phases of the cell cycle (G0/G1, S, and G2/M) (the fluorescence intensity emitted by PI doubles with the duplication of DNA quantity in the G1 and G2 phases),[86] and its detection can be performed by flow cytometry. […] To ensure that all cells were in the same phase of the cell cycle (S phase) when exposed to the Cu(II) complexes and controls, a double thymidine block was applied.[83]
HCT116-DoxR cells were cultured in six-well plates at a density of 1 × 10^5 cells/mL and incubated at 37 °C, 5% (v/v) CO2, and 99% (v/v) relative humidity for 8 h. To ensure that cells were in the same phase of the cell cycle, they were subjected to a double thymidine block for synchronization. At the end of the incubation, the culture medium was replaced with 2 mM thymidine in complete medium, and cells were incubated for 16 h. After incubation, the thymidine-containing medium was replaced with a thymidine-free complete medium, and cells were incubated for an additional 8 h. After this time, a second thymidine block was applied, as described earlier. At the end of the incubation, the thymidine-containing medium was replaced with a fresh medium containing the cooper complexes at their IC50 concentration. A 0.1% (v/v) DMSO solution was used as vehicle control, while 6 μM Dox, and 5 μM Cis were used as positive controls. Cells were incubated again for 9, 12, 18, and 24 h. Immediately after exposure (0 h) and at the end of each incubation period, the medium was removed, cells detached with TrypLE Express, and centrifuged for 5 min at 650 × g, at 4 °C. The pellet was resuspended in cold PBS 1× and centrifuged at 3000 × g for 5 min, at 4 °C. Later, the pellet was resuspended in cold PBS 1×, and 1 mL of 80% (v/v) cold ethanol was added dropwise to each tube. […] The DNA content was evaluated on an Attune acoustic focusing flow cytometer (Life Technologies, Carlsbad, USA), and the results were analyzed by the respective software (Attune Cytometric software).

[1] = system: A2780 cells (ovarian carcinoma); assay: MTS cell viability assay, A2780; settings: for IC50: 48 h of exposure, MTS, relative IC50, mean + SEM; for SI A2780: ratio IC50 fibroblasts / IC50 A2780
Description: (§1) The antiproliferative effect of the Cu(II) complexes in tumor and healthy cell lines was assessed through the MTS assay, a colorimetric method that is widely used to evaluate cellular viability, specifically mitochondrial viability.[53],[54] Cellular viability was determined after 48 h exposure to a concentration range (0.1–50 μM) of Cu(II) complexes in three tumor cell lines. […] Additionally, the viability of healthy primary dermal fibroblasts was performed as a comparison of the complexes’ antiproliferative effects in normal cells.
(§2) Cellular viability assays were performed using HCT116, HCT116-DoxR, and A2780 cancer cell lines as well as normal human primary fibroblasts. Cells were seeded at a density of 0.75 × 10^5 cells/mL in 96-well plates and incubated at 37 °C with 5% (v/v) CO2 for 24 h. After this incubation period, the copper complexes were accurately weighed and immediately dissolved in 100% (v/v) dimethyl sulfoxide (DMSO). Subsequently, the complexes were diluted to the final concentration using a cell culture medium. The culture medium in each well was replaced with fresh medium containing varying concentrations of the complexes (ranging from 0.01 to 50 μM). Negative controls contained culture medium with 0.1% (v/v) DMSO, and positive controls contained 0.4 μM Dox.
(§3) After an additional 48 h of incubation under the same conditions, cellular viability was assessed using the CellTiter 96 Aqueous One Solution Cell Proliferation Assay kit (Promega, Madison, USA). Metabolically active cells contain mitochondrial dehydrogenases that can reduce 3-(4,5-dimethylthiazol-2-yl)-5-(3-carboxymethoxyphenyl)-2-(4-sulfophenyl)-2H-tetrazolium, the inner salt (MTS) to formazan. The absorbance of formazan, measured at 490 nm in a microplate reader (Tecan Infinite M200, Tecan, Männedorf, Switzerland), is directly proportional to the number of viable cells.[104]
(§4) The cell viability versus concentration graphics were analyzed using Prism 8 software (GraphPad) to determine the half-maximal inhibitory concentration (IC50) of each complex for the respective cell line. Additionally, the selective index (SI) for each complex was calculated by dividing the IC50 of human fibroblasts by the IC50 values of the tested cancer cell lines.

[2] = system: primary dermal fibroblasts; assay: Cell migration (wound healing) assay; settings: 24 h; complexes at IC50, Dox 6 μM; DMSO control 100%
Description: Cellular migration is the individual movement of cells from one location to another.[96] This migratory process is an integral part of both the metastatic process and wound healing.[54] […] The in vitro wound healing assay is highly used to understand how the complexes affect cellular migration by measuring the closure of a gap previously created in the cell culture plate. […] Additionally, cells were subjected to the vehicle control of 0.1% DMSO and the positive control of Dox (6 μM), and the percentage of remission/regeneration was calculated (Figure 18).
Fibroblasts were seeded in 24-well plates at a cell density of 4 × 10^5 cells/mL. The plates were incubated for 24 h under the same conditions described before until a confluent cell monolayer was obtained. […] The cells were incubated at 37 °C for 48 h. The plates were photographed under an inverted microscope (Nikon TMS, Nikon Instruments, Tokyo, Japan) at 4× magnification (immediately after exposure to the complexes (0 h), 24, and 48 h following exposure).

[3] = system: HCT116-DoxR cells (doxorubicin resistant colorectal carcinoma); assay: MTS cell viability assay, HCT116-DoxR 2D; settings: for IC50: 48 h of exposure, MTS, relative IC50, mean + SEM, read-out: IC50 HCT116-DoxR (2D); for SI HCT116-DoxR: ratio IC50 fibroblasts / IC50 HCT116-DoxR
Description: as §1, §2, §3, §4

| Structure (SMILES) | effect on cell cycle progression (HCT116-DoxR cells) | IC50 [1] [nM] | percentage of remission/regeneration of the wound [2] | IC50 [3] [nM] | SI HCT116-DoxR [3] | SI A2780 [1] | IC50 ([3]; Homo sapiens) [nM] | IC50 ([1]; Homo sapiens, A2780) [nM] |
| --- | --- | --- | --- | --- | --- | --- | --- | --- |
| N.N.[Cl][Pt][Cl] [Cisplatin] | has a cytostatic effect in G2/M after incubation for 24 h | 1900 ± 200 | – | – | – | – | – | – |
| [Cl][Cu-3]12([Cl])[n+]3ccccc3-c3cc(-c4cccc5ccccc45)cc([n+]31)-c1cccc[n+]12 [Cu1a] | a delay in the cell cycle at the S phase after 9 h, in the G2/M after 12 h of incubation, and a delay in the cell cycle at G0/G1 at 18 h | 530 ± 70 | approximately 66% | 240 ± 20 | 38.6 | 17.5 | – | – |
| [Cl][Cu-3]12([Cl])[n+]3ccccc3-c3cc(-c4ccc5ccccc5c4)cc([n+]31)-c1cccc[n+]12 [Cu1b] | a delay in the cell cycle at the S phase after 9 h, in the G2/M after 12 h of incubation, and a delay in the cell cycle at G0/G1 at 18 h | 570 ± 60 | 69% | 290 ± 20 | 45.9 | 23.3 | – | – |
| COc1cccc2c1C(=O)c1c(O)c3c(c(O)c1C2=O)C[C@@](O)(C(=O)CO)C[C@@H]3O[C@H]1C[C@H](N)[C@H](O)[C@H](C)O1 [Doxorubicin] | did not affect the cell cycle progression or cause an arrest | – | 68% | – | – | – | > 6000 | 100 ± 40 |
